Patent publication US6855669B2, “Use of α,β unsaturated aliphatic aldehydes and ketones to inhibit potato tuber sprouting” (Washington State University Research Foundation, priority 2000, dated 2005)

Assays:
Assay type in all cases: in vivo, Solanum tuberosum
[1] = test system: Russet Burbank seed tubers; assay: Example 4: sprout inhibition by aldehyde vapors, 26 days of sprouting; conditions: 12 hours vapor, 26 days at 18° C.
Experimental: Methods: Eleven-month-old Russet Burbank seed tubers were taken from a 4° C. storage area and exposed to trans-2-hexenal (0.6-4.3 mmol/kg), trans-2-heptenal (0.6-3.8 mmol/kg) and trans-2-octenal (0.5-2.5 mmol/kg) vapors separately in 3.9 L glass containers for 12 hours at 23° C. The aldehydes were applied to filter paper inside petri dishes within each jar. Control tubers were enclosed in a glass container without any aldehyde. Sprouts were ‘peeping’ (approximately 3 mm in length) at the time of treatment. Following treatment, tubers were placed at 18° C. (95% relative humidity) in the dark to sprout for 26 days. The experiment was set up in a randomized complete block design (5 replicates) with chemicals and concentrations arranged factorially. Effects of the aliphatic aldehydes on the development of etiolated sprouts were documented at 20 days (photographically) and 26 days of sprouting.

[2] = test system: Russet Burbank and Ranger Russet seed-tubers; assay: Example 5: sprout inhibition by C5 to C9 trans-2 aldehydes over prolonged storage (17 weeks); conditions: 0.5, 0.75 and 1.0 mmol/kg tuber, 24 hours, 17 weeks at 8° C.; for inhibition of sprout development (in words): 95% RH
Experimental: (46° F.), 95% relative humidity (RH), for 17 weeks. As described more fully in Example 5, four-month-old tubers (previously stored at 4° C.) were treated (for 24 h) with different concentrations of the aldehydes in mid January. The treated tubers were then stored in the dark for 120 days (17 weeks).
Methods: Four-month-old Russet Burbank and Ranger Russet seed-tubers were taken from a 4° C. storage area and treated (Jan. 10, 2001) separately with 0, 0.5, 0.75 and 1.0 mmol/kg tuber of trans-2-pentenal, trans-2-hexenal, trans-2-heptenal, trans-2-octenal, and trans-2-nonenal in 3.9 L glass jars. The volume of inhibitor required to achieve the above rates was pipetted onto filter paper discs inside the lids of each jar. The concentration of inhibitors in the headspace of the jars was equal at 0.16 mmol/L. The tubers were enclosed in the jars and thus exposed to inhibitor vapor for 24 hours at 23° C. Control tubers were enclosed in a glass jar without any aldehyde. Following treatment, tubers were removed from the jars and placed at 8° C. (46° F.) (95% relative humidity) in the dark to sprout for 120 days (17 weeks). The experiment was set up in a randomized complete block design (5 replicates) with chemicals and concentrations arranged factorially. Effects of the aliphatic aldehydes on the development of etiolated sprouts were documented photographically and quantitatively (sprout number and fresh weight) after 120 days of storage.

[3] = test system: Russet Burbank tubers; assay: Example 6: reconditioning, sprout fresh weight and fry color; conditions: 0.45 mmol/kg
Experimental: Seven-month-old tubers from 4° C. (40° F.) storage were treated with 0.45 mmol/kg trans-2-nonenal for 17 hours at 23° C. The tubers were then placed at 14° C. (57° F.) to recondition. French fries were processed from the tubers through four weeks of reconditioning. Fry color (lightness or darkness) was quantified with a photovolt reflectance meter. High photovolt values indicate light-colored fries (high processing quality). Low photovolt values indicate low-quality, dark-colored fries.
Methods: Russet Burbank tubers were stored at 7° C. (44° F.) from harvest Oct. 29, 2000 to Jan. 26, 2001. The tubers were transferred to 4° C. (40° F.) on Jan. 26, 2001, until treatment on Apr. 2, 2001. Tubers were treated with 0.45 mmol/kg trans-2-nonenal in 9.2 L glass desiccators for 17 hours at 23° C. Following treatment, the tubers were placed at 14° C. (57° F.) to recondition for 0, 1, 2, 3 and 4 weeks. […] Fry darkness of the apical and basal ends of the fries was quantified with a photovolt reflectance meter within three minutes of frying. A high reflectance reading (photovolt unit) indicates light fry color due to a relatively low sugar level and thus a high-quality processed product. Conversely, a low reflectance reading indicates dark fry color due to high sugar content, resulting in low processing quality. […] Sprout fresh weight and fry color were recorded.

SMILES: CCCC/C=C/C=O [trans-2-heptenal]
- Average Sprout Length ([1]; 0.56 mmol/kg): 0.2 cm/tuber
- Sprout Fresh Weight ([1]; 0.56 mmol/kg): 0.01 g/tuber
- Average Sprout Length ([1]; 1.11 mmol/kg): 0 cm/tuber
- Sprout Fresh Weight ([1]; 1.11 mmol/kg): 0 g/tuber
- Average Sprout Length ([1]; 1.69 mmol/kg): 0 cm/tuber
- Sprout Fresh Weight ([1]; 1.69 mmol/kg): 0 g/tuber
- Average Sprout Length ([1]; 2.16 mmol/kg): 0 cm/tuber
- Sprout Fresh Weight ([1]; 2.16 mmol/kg): 0 g/tuber
- Average Sprout Length ([1]; 3.85 mmol/kg): 0 cm/tuber
- Sprout Fresh Weight ([1]; 3.85 mmol/kg): 0 g/tuber
- inhibition of sprout development (in words) [2]: inhibited sprouting in a concentration-dependent manner

SMILES: CCCCC/C=C/C=O [trans-2-octenal]
- Average Sprout Length ([1]; 0.50 mmol/kg): 0 cm/tuber
- Sprout Fresh Weight ([1]; 0.50 mmol/kg): 0 g/tuber
- Average Sprout Length ([1]; 0.97 mmol/kg): 0 cm/tuber
- Sprout Fresh Weight ([1]; 0.97 mmol/kg): 0 g/tuber
- Average Sprout Length ([1]; 1.44 mmol/kg): 0 cm/tuber
- Sprout Fresh Weight ([1]; 1.44 mmol/kg): 0 g/tuber
- Average Sprout Length ([1]; 1.93 mmol/kg): 0.2 cm/tuber
- Sprout Fresh Weight ([1]; 1.93 mmol/kg): 0.10 g/tuber
- Average Sprout Length ([1]; 2.48 mmol/kg): 0.2 cm/tuber
- Sprout Fresh Weight ([1]; 2.48 mmol/kg): 0.13 g/tuber
- external pitting damage to the periderm (in words) [2]: did not induce external pitting damage
- inhibition of sprout development (in words) [2]: totally inhibited sprout development

SMILES: CCCCCC/C=C/C=O [trans-2-nonenal]
- sprouts produced (fresh weight) ([3]; 17 hours at 23° C., four weeks of reconditioning at 57° F.): 13.5 g fresh weight/12 tubers
- processing quality (fry color, photovolt reflectance) (in words) ([3]; from 2 to 4 weeks of reconditioning at 57° F.): continued to increase
- external pitting damage to the periderm (in words) [2]: did not induce external pitting damage
- inhibition of sprout development (in words) [2]: totally inhibited sprout development

SMILES: CC/C=C/C=O [trans-2-pentenal]
- inhibition of sprout development (in words) [2]: inhibited sprouting in a concentration-dependent manner
